From patent publication US8822517B2, “Arylosulfonamides for the treatment of CNS diseases” (Adamed SP. Z O.O., priority 2010, dated 2014)

Tests used:
[1] = target: T1, serotonine transporter (SERT) receptor (Homo sapiens, UniProt P31645); test: Binding assay SERT (h), [3H]imipramine, CHO cells; settings: for inhibition at 1 µM: read-out: SERT [%]; for SERT [%]: percent inhibition of control specific binding, compounds tested at 1×10^−6 M
T1 construct: expressed in transfected cells; host or cells: CHO cells
T1 sequence (P31645 whole entry): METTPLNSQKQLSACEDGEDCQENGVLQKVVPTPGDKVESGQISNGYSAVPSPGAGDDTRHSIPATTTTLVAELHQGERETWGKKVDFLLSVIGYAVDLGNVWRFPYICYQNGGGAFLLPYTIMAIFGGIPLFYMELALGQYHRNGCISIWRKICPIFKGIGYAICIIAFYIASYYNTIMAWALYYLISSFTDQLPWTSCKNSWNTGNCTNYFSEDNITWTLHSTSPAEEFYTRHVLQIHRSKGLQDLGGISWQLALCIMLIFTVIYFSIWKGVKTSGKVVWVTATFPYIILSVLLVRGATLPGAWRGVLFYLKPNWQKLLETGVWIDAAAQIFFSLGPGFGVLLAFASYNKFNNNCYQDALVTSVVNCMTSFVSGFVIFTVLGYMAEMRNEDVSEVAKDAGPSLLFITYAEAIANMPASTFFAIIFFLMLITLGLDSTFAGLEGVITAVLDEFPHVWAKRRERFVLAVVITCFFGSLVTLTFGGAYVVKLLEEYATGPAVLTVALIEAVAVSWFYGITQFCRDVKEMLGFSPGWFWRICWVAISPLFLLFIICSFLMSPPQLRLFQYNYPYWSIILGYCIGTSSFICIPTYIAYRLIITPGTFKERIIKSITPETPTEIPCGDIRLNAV
Summary of the method: (§1)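 Specific ligand binding was taken as total minus non-specific binding, with the latter defined in the presence of surplus unlabelled ligand. Each compound was tested at a single 1×10^−6 M concentration.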

[2] = tested on: adrenergic α1 receptor; test: Binding assay α1 (non-selective), [3H]prazosin, rat cerebral cortex; settings: percent inhibition of control specific binding; compounds tested at 1×10^−6 M
Summary of the method: as §1

[3] = target: dopaminergic D3 receptor (Homo sapiens, UniProt P35462); test: Binding assay D3 (h), [3H]methyl-spiperone, CHO cells; set-up: expressed in transfected cells; host or cells: CHO cells; settings: for inhibition at 1 µM: read-out: D3 [%]; for D3 [%]: percent inhibition of control specific binding, compounds tested at 1×10^−6 M
Chain of dopaminergic D3 receptor (P35462 whole entry): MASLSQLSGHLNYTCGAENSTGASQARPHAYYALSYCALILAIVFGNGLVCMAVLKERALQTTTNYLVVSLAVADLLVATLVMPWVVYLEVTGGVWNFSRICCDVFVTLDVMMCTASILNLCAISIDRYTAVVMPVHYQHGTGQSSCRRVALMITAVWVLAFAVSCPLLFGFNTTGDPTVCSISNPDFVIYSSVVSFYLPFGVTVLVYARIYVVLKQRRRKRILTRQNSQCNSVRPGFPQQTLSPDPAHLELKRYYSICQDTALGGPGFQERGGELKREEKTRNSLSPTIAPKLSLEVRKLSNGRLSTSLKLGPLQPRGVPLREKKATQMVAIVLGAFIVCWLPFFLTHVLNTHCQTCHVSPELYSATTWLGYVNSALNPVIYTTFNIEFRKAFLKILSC
Summary of the method: as §1

[4] = target: serotoninergic 5-HT6 receptor (Homo sapiens, UniProt P50406); test: Binding assay 5-HT6 (h), [3H]LSD, CHO cells; set-up: expressed in transfected cells; host or cells: CHO cells; settings: for inhibition at 1 µM: read-out: 5-HT6; for 5-HT6: percent inhibition of control specific binding, compounds tested at 1×10^−6 M
Chain of serotoninergic 5-HT6 receptor (P50406 whole entry): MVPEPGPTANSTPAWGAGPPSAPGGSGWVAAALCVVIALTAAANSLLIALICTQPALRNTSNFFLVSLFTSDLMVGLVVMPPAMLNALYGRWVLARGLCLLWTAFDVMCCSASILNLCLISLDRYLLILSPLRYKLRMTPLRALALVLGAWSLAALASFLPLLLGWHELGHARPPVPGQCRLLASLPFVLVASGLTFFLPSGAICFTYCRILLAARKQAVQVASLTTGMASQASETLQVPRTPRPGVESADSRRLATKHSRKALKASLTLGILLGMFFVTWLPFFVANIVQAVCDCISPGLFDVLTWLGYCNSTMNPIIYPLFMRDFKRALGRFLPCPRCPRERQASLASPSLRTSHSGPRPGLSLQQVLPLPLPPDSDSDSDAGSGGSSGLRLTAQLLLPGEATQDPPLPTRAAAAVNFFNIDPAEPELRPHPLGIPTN
Summary of the method: as §1

[5] = target: serotoninergic 5-HT7 receptor (Homo sapiens, UniProt P34969); test: Binding assay 5-HT7 (h), [3H]LSD, CHO cells; set-up: expressed in transfected cells; host or cells: CHO cells; settings: for inhibition at 1 µM: read-out: 5-HT7; for 5-HT7: percent inhibition of control specific binding, compounds tested at 1×10^−6 M
Chain of serotoninergic 5-HT7 receptor (P34969 whole entry): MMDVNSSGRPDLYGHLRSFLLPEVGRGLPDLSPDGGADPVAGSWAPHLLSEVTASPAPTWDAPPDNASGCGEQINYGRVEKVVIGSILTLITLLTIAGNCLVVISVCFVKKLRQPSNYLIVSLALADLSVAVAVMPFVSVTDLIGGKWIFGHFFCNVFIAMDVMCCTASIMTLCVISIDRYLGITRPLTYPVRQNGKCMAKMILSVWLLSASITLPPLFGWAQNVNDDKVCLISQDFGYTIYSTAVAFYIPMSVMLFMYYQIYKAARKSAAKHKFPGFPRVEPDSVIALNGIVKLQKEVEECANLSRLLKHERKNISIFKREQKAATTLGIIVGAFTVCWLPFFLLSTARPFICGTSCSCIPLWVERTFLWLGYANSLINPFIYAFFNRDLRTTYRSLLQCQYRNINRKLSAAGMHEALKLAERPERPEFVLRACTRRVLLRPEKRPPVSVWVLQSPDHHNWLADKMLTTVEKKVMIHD
Summary of the method: as §1

[6] = target: dopaminergic D2 receptor (Homo sapiens, UniProt P14416); test: Binding assay D2S (h), [3H]methyl-spiperone, HEK-293 cells; set-up: expressed in transfected cells; host or cells: HEK-293 cells; settings: for inhibition at 1 µM: read-out: D2 [%]; for D2 [%]: percent inhibition of control specific binding, compounds tested at 1×10^−6 M
Chain of dopaminergic D2 receptor (P14416 1-414 isoform P14416-2): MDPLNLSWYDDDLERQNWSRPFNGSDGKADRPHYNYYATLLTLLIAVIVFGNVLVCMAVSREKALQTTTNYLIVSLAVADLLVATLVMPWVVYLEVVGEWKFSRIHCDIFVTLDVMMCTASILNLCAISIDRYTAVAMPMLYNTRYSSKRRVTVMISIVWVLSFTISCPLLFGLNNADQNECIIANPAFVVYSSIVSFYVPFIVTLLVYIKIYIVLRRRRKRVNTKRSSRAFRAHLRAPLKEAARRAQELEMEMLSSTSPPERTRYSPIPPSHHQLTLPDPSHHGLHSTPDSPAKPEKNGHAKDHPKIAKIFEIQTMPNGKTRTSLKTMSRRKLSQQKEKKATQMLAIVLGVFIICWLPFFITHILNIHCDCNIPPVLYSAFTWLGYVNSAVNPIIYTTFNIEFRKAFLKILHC
Summary of the method: as §1

[7] = target: T2, serotoninergic 5-HT1A receptor (Homo sapiens, UniProt P08908); test: Binding assay 5-HT1A (h), [3H]8-OH-DPAT, HEK-293 cells; set-up: expressed in transfected cells; host or cells: HEK-293 cells; settings: for inhibition at 1 µM: read-out: 5-HT1A; for 5-HT1A: percent inhibition of control specific binding, compounds tested at 1×10^−6 M
T2 sequence (P08908 1-422): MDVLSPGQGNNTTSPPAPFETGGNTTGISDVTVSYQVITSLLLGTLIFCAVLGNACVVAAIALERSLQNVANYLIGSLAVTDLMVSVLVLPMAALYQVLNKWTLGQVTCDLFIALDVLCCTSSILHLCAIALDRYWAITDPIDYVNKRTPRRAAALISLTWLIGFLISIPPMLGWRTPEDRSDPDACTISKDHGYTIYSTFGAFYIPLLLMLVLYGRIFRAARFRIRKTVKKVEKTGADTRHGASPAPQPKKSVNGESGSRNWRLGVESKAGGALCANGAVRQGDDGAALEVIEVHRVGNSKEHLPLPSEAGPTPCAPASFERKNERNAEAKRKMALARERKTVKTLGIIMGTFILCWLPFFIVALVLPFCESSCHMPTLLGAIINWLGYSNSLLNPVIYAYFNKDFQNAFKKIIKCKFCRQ
Summary of the method: as §1

[8] = target: serotoninergic 5-HT2A receptor (Homo sapiens, UniProt P28223); test: Binding assay 5-HT2A (h), [3H]ketanserin, HEK-293 cells; set-up: expressed in transfected cells; host or cells: HEK-293 cells; settings: for inhibition at 1 µM: read-out: 5-HT2A; for 5-HT2A: percent inhibition of control specific binding, compounds tested at 1×10^−6 M
Chain of serotoninergic 5-HT2A receptor (P28223 whole entry): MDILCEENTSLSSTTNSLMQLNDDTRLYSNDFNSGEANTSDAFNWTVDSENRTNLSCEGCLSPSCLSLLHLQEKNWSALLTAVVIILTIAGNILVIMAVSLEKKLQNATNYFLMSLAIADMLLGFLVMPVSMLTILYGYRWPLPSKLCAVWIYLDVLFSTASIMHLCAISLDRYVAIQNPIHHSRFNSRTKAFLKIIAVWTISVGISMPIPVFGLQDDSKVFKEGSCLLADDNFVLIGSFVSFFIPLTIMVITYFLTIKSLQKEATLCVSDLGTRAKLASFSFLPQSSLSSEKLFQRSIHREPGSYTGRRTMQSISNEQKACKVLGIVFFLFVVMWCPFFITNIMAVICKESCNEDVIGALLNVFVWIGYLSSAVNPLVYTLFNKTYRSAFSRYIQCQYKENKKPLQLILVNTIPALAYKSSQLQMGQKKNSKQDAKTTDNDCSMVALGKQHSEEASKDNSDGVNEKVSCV
Summary of the method: as §1

| Compound | inhibition at 1 µM [1] [%] | α1 [%] [2] [%] | inhibition at 1 µM [3] [%] | inhibition at 1 µM [4] [%] | inhibition at 1 µM [5] [%] | inhibition at 1 µM [6] [%] | inhibition at 1 µM [7] [%] | inhibition at 1 µM [8] [%] | SERT [%] [1] [%] | D3 [%] [3] [%] | 5-HT6 [4] [%] | 5-HT7 [5] [%] | D2 [%] [6] [%] | 5-HT1A [7] [%] | 5-HT2A [8] [%] |
| --- | --- | --- | --- | --- | --- | --- | --- | --- | --- | --- | --- | --- | --- | --- | --- |
| O=S(=O)(NCCCN1CCC(c2noc3cc(F)ccc23)CC1)c1cc2ccccc2s1 [Compound 345, N-[3-[4-(6-Fluoro-1,2-benzoxazol-3-yl)piperidin-1-yl]propyl]benzothiophene-2-sulphonamide] | -10 | 102 | 100 | 91 | 91 | 109 | 45 | 93 |  |  |  |  |  |  |  |
| N#Cc1ccc(S(=O)(=O)NCCCN2CCC(c3noc4cc(F)ccc34)CC2)cc1 [Compound 337, 4-Cyano-N-[3-[4-(6-fluoro-1,2-benzoxazol-3-yl)piperidin-1-yl]propyl]benzenesulphonamide] | 35 | 93 | 79 | 76 | 87 | 59 | 41 | 102 |  |  |  |  |  |  |  |
| O=C1Cc2cc(S(=O)(=O)NCCCCN3CCC(c4noc5cc(F)ccc45)CC3)ccc2N1 [Compound 324, N-[4-[4-(6-Fluoro-1,2-benzoxazol-3-yl)piperidin-1-yl]butyl]-2-oxo-indoline-5-sulphonamide] | 37 | 103 | 103 | 78 | 78 | 105 | 56 | 104 |  |  |  |  |  |  |  |
| O=S(=O)(NCCCCN1CCN(c2nsc3ccccc23)CC1)c1cccs1 [Compound 238, N-[4-[4-(1,2-Benzothiazol-3-yl)piperazin-1-yl]butyl]thiophene-2-sulphonamide] | 13 | 103 | 85 | 74 | 88 | 87 | 90 | 95 |  |  |  |  |  |  |  |
| O=S(=O)(NCCCCN1CCC(c2noc3cc(F)ccc23)CC1)c1ccc2c(c1)CCO2 [Compound 317, N-[4-[4-(6-Fluoro-1,2-benzoxazol-3-yl)piperidin-1-yl]butyl]-2,3-dihydrobenzofuran-5-sulphonamide] | -17 | 99 | 97 | 78 | 89 | 105 | 45 | 98 |  |  |  |  |  |  |  |
| N#Cc1cccc(S(=O)(=O)NCCCCN2CCN(c3nsc4ccccc34)CC2)c1 [Compound 73, N-[4-[4-(1,2-Benzothiazol-3-yl)piperazin-1-yl]butyl]-3-cyanobenzenesulphonamide] | 37 | 98 | 94 | 82 | 91 | 102 | 92 | 81 |  |  |  |  |  |  |  |
| O=S(=O)(NCCCN1CCN(c2cccc3c2OCCO3)CC1)c1ccc2cc(Cl)ccc2c1 [Compound 407, 6-Chloro-N-[3-[4-(2,3-dihydro-1,4-benzodioxin-5-yl)piperazin-1-yl]propyl]naphthalene-2-sulphonamide] | -2 | 72 | 84 | 37 | 102 | 58 | 88 | 50 |  |  |  |  |  |  |  |
| O=S(=O)(NCCCCN1CCC(c2noc3cc(F)ccc23)CC1)c1ccc(F)c(Cl)c1 [Compound 299, 3-Chloro-4-fluoro-N-[4-[4-(6-fluoro-1,2-benzoxazol-3-yl)piperidin-1-yl]butyl]benzenesulphonamide] | 14 | 98 | 98 | 84 | 75 | 87 | 45 | 89 |  |  |  |  |  |  |  |
| O=S(=O)(NCCCCN1CCN(c2cccc3c2OCCO3)CC1)c1ccc2ccccc2c1 [Compound 386, N-[4-[4-(2,3-Dihydro-1,4-benzodioxin-5-yl)piperazin-1-yl]butyl]naphthalene-2-sulphonamide] | -5 | 96 | 88 | 1 | 82 | 70 | 96 | 65 |  |  |  |  |  |  |  |
| O=S(=O)(NCCCCN1CCC(c2noc3cc(F)ccc23)CC1)c1ccc(C(F)(F)F)cc1 [Compound 302, N-[4-[4-(6-Fluoro-1,2-benzoxazol-3-yl)piperidin-1-yl]butyl]-4-(trifluoromethyl)benzenesulphonamide] | 19 | 100 | 99 | 72 | 101 | 90 | 50 | 95 |  |  |  |  |  |  |  |
| O=S(=O)(NCCCCN1CCN(c2cccc3[nH]ccc23)CC1)c1cccc(C(F)(F)F)c1 [Compound 361, N-[4-[4-(1H-Indol-4-yl)piperazin-1-yl]butyl]-3-(trifluoromethyl)benzenesulphonamide] | 6 | 98 | 98 | 70 | 86 | 99 | 95 | 49 |  |  |  |  |  |  |  |
| O=S(=O)(NCCCCN1CCN(c2nsc3ccccc23)CC1)c1cccc(C(F)(F)F)c1 [Compound 235, N-[4-[4-(1,2-Benzothiazol-3-yl)piperazin-1-yl]butyl]-3-(trifluoromethyl)benzenesulphonamide] | 8 | 95 | 87 | 82 | 93 | 103 | 86 | 80 |  |  |  |  |  |  |  |
| N-[4-[4-(1H-Indol-4-yl)piperazin-1-yl]butyl]-1,3-benzodioxole-5-sulphonamide [Compound 365] |  | 100 |  |  |  |  |  |  | 25 | 100 | 67 | 95 | 99 | 90 | 55 |
| O=S(=O)(NCCCCN1CCN(c2cccc3c2OCCO3)CC1)c1cccc(Cl)c1 [Compound 390, 3-Chloro-N-[4-[4-(2,3-dihydro-1,4-benzodioxin-5-yl)piperazin-1-yl]butyl]benzenesulphonamide] | -15 | 73 | 81 | 26 | 66 | 61 | 101 | 59 |  |  |  |  |  |  |  |
| O=S(=O)(NCCCCN1CCN(c2nsc3ccccc23)CC1)c1ccc(Cl)s1 [Compound 195, N-[4-[4-(1,2-Benzothiazol-3-yl)piperazin-1-yl]butyl]-5-chloro-thiophene-2-sulphonamide] | -3 | 96 | 89 | 60 | 98 | 99 | 89 | 91 |  |  |  |  |  |  |  |
| COc1ccc(S(=O)(=O)NCCCCN2CC=C(c3c[nH]c4ccc(Cl)cc34)CC2)cc1 [Compound 42, 4-Methoxy-N{4-[4-(5-chloro-1H-indol-3-yl)-3,6-dihydropyridin-1(2H)-yl]butyl}benzenesulphonamide] |  | 77 |  |  |  |  |  |  | 96 | 101 | 96 | 76 | 74 | 90 | 77 |
| O=S(=O)(NCCCCN1CCC(c2noc3cc(F)ccc23)CC1)c1ccc(-c2ccccc2)cc1 [Compound 111, N-[4-[4-(6-Fluoro-1,2-benzoxazol-3-yl)piperidin-1-yl]butyl]-4-phenylbenzenesulphonamide] | -14 | 100 | 93 | 95 | 93 | 108 | 39 | 96 |  |  |  |  |  |  |  |
